“And” between values parts separate entries of the source, which are not always exact repeats. Equal values may be shown once. The source made the active and inactive calls.
How the values were obtained:
Cytochrome P450 3A4 [1] = molecular target: T1, Cytochrome P450 3A4 (Homo sapiens, UniProt P08684); conditions: Potency
Leucine aminopeptidase = molecular target: T2, Leucine aminopeptidase (Plasmodium falciparum 3D7, UniProt Q8IL11); assay: P. falciparum M17LAP inhibitors, primary screen, biochemical, fluorogenic H-Leu-NHMec substrate, 1536-well (AID 1619); assay type: functional
T2 sequence (Q8IL11 whole entry): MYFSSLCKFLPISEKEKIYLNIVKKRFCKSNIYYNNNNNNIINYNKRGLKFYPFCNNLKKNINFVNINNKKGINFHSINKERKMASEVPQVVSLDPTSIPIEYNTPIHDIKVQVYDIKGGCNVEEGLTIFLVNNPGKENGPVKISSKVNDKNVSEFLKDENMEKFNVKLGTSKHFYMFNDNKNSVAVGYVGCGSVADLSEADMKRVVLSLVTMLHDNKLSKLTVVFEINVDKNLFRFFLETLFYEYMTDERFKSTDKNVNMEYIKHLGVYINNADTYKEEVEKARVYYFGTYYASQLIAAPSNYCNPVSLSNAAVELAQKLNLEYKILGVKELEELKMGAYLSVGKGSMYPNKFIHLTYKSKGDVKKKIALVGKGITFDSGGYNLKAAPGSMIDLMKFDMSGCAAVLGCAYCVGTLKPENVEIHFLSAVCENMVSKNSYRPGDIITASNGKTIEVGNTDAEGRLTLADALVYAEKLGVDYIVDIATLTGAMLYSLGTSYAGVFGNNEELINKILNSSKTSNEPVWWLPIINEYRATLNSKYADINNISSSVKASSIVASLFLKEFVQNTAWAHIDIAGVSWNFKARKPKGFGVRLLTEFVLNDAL

[2] = viability of PTEN-deleted HCT116 cells – cell-based, HCT116 PTEN knockout, dose response (AID 1047); assay type: functional;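 further: HCT116 colon tumor cells with PTEN knocked out; cells exposed to compound for 60 hours before readout; potency for loss of cell viability measured by luminescence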
[3] = viability of HCT116 lacking mutant beta-catenin – cell-based, human colon tumor, dose response (AID 1045); assay type: functional;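 further: HCT116 colon tumor cells with beta catenin knocked out; cells exposed to compound for 60 hours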
[4] = molecular target: Neurotensin receptor type 1 (Homo sapiens, UniProt P30989); assay type: functional;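 further: Image-based confirmatory dose-response assay measuring agonist activity at NTR1; NTR1-expressing U2OS osteosarcoma cells imaged for beta-arrestin GFP spot formation; agonist potency where compounds increase beta-arrestin recruitment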
[5] = Luminescence Cell-Based Dose Retest to Confirm Inhibitors of Cancer Stem Cells. [Related pubchem assays (depositor defined):AID2717, AID2721]; assay type: functional; conditions: Homo sapiens
Cytochrome P450 3A4 [6] = molecular target: T1, Cytochrome P450 3A4
[7] = A cytotoxicity screen of small molecule inhibitors of the PhoP region in Salmonella typhi identified in the primary screen. [Related pubchem assays: 1850, 1864, 1985 ]; assay type: functional
[8] = molecular target: T3, Short transient receptor potential channel 4 (Mus musculus, UniProt Q9QUQ5); assay: calcium entry via TRPC4 opening agents – cell-based, HEK293 TRPC4/mu-opioid, Fluo-4 calcium, dose response (AID 434937); assay type: functional
T3 sequence (Q9QUQ5 whole entry): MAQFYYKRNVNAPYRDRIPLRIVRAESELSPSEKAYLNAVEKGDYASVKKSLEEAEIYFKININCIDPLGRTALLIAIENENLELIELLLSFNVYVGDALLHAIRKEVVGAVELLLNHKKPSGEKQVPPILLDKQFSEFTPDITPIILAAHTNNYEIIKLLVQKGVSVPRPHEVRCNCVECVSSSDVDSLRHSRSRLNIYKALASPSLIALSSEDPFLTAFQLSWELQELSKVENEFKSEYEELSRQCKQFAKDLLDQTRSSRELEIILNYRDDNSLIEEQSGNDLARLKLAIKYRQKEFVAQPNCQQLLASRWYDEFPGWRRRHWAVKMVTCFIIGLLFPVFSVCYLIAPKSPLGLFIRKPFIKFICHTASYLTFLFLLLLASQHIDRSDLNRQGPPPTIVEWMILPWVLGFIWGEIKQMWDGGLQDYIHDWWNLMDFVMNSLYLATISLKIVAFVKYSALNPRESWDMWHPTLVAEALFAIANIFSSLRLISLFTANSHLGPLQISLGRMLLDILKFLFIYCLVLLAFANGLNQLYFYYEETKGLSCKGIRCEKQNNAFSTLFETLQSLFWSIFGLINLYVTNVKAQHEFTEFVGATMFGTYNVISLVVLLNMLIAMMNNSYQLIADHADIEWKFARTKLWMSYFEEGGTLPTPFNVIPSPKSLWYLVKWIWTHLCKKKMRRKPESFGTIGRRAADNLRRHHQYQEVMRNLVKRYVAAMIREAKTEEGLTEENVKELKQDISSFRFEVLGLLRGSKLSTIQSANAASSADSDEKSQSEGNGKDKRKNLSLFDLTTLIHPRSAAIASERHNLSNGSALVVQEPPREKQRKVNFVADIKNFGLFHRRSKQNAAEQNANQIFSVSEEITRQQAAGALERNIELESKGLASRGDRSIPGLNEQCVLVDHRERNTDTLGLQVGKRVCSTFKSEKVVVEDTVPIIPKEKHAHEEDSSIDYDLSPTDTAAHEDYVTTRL

INS1 = assay: INS-1E survival protection against cytokine death – cell-based, luminescence, retest, dose response (AID 449756); assay type: functional; conditions: Rattus norvegicus;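 further: cell death triggered by IL-1 beta plus TNF-alpha plus IFN-gamma mixture; protective hits raise ATP signal compared with cytokine alone wells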
cells [9] = assay type: functional, cell-based
cells [10] = assay type: functional, cell-based; remark: listed apart in the source
[11] = intracellular Trypanosoma cruzi inhibitors in host cells – cell-based, plate reader, cherry-pick samples, set 3, dose response (AID 651818); assay type: functional;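 further: compounds incubated with infected cells for about four days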
Paired box protein Pax-8 = Paired box protein Pax-8 (Homo sapiens, UniProt Q06710); assay: PAX8 transcriptional activity inhibition in RMG-I – RMG-I cells, luciferase, cherry-pick, dose response (AID 687027); assay type: functional, cell-based;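 further: luciferase reporter driven by Pax8 target thyroperoxidase promoter measured by SteadyGlo luminescence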
[12] = OVCAR-3 cell viability loss – plate reader, dry powder samples, PAX8 inhibitor project, dose response (AID 743044); assay type: functional, cell-based
[13] = OVCAR8 cell viability loss – plate reader, dry powder samples, PAX8 project, dose response (AID 743197); assay type: functional, cell-based; conditions: OVCAR-8
[14] = IGROV1 cell killing – plate reader, dry powder samples, PAX8 inhibitor project, dose response (AID 743043); assay type: functional, cell-based; conditions: IGROV-1
[15] = molecular target: T4, Replicative DNA helicase DnaB (Mycobacterium tuberculosis, UniProt P9WMR3); assay: DnaB intein splicing inhibitors, dose response, biochemical, cell-free fluorescence (AID 449749); assay type: functional
T4 sequence (P9WMR3 whole entry): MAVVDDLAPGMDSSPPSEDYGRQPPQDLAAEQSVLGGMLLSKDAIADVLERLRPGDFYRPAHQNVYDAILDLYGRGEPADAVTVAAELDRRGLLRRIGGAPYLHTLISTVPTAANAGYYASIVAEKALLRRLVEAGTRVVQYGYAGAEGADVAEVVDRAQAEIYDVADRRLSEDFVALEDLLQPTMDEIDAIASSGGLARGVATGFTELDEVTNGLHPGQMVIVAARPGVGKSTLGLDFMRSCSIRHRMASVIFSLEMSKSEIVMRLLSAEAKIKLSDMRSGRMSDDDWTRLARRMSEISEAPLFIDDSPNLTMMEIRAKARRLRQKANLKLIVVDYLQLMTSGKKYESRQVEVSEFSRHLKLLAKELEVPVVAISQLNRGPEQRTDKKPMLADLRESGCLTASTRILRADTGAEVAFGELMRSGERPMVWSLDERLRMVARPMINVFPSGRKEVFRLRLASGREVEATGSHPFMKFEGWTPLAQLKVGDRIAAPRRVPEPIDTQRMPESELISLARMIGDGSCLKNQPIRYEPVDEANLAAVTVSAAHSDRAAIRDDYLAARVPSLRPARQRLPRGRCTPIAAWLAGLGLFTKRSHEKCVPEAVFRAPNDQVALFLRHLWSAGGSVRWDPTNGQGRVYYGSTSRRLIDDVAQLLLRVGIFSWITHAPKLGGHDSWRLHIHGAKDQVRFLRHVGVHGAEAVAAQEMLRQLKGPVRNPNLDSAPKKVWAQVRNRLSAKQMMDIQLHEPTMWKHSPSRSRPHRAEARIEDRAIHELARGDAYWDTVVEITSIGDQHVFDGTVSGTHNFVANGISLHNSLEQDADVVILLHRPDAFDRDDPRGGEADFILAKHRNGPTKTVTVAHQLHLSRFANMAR

Protein RecA = molecular target: T5, Protein RecA (Mycobacterium tuberculosis, UniProt P9WHJ3); assay: Fluorescence Cell-Free Homogeneous Dose Retest to Identify Inhibitors of RecA-Intein Splicing Activity. [Related pubchem assays (depositor defined):AID2097, AID2223, AID489010, AID492950]; assay type: functional
T5 sequence (P9WHJ3 whole entry): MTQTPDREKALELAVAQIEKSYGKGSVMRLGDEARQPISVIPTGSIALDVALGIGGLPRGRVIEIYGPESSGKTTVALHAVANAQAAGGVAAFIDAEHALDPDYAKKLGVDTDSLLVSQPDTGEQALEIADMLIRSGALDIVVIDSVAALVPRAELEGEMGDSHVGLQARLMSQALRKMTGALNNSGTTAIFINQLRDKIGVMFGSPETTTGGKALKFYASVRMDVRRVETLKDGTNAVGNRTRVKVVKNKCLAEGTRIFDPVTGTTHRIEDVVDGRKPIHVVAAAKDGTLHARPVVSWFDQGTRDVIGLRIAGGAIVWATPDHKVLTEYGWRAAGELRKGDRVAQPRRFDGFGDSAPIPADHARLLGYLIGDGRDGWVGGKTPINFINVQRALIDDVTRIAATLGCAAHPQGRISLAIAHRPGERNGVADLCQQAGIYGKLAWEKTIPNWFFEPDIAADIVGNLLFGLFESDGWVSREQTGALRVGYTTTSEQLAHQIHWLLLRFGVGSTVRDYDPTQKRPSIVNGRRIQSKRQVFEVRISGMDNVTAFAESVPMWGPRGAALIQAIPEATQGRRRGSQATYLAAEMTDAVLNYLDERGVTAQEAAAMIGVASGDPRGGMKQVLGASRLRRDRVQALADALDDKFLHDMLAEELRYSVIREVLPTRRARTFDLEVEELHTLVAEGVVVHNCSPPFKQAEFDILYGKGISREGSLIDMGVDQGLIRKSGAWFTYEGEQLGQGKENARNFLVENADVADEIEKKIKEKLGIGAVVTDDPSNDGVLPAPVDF

Large T antigen = Large T antigen (Simian virus 40, UniProt P03070); assay type: functional, Betapolyomavirus macacae;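 further: Confirmatory-stage PubChem screen for compounds that inhibit SV40 T antigen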
[16] = molecular target: FAD-linked sulfhydryl oxidase ALR (Homo sapiens, UniProt P55789); assay: ALR-catalysed DTT oxidation blockers – biochemical, H2O2 detection, luminescence, cherry-pick, dose response (AID 493248)
Chain of FAD-linked sulfhydryl oxidase ALR (P55789 whole entry): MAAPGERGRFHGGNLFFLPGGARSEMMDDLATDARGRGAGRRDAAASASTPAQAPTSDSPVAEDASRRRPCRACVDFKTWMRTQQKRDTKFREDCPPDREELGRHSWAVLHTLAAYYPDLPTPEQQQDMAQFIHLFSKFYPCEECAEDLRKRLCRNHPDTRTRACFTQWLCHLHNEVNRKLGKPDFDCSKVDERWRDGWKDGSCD

T1 sequence (P08684 whole entry): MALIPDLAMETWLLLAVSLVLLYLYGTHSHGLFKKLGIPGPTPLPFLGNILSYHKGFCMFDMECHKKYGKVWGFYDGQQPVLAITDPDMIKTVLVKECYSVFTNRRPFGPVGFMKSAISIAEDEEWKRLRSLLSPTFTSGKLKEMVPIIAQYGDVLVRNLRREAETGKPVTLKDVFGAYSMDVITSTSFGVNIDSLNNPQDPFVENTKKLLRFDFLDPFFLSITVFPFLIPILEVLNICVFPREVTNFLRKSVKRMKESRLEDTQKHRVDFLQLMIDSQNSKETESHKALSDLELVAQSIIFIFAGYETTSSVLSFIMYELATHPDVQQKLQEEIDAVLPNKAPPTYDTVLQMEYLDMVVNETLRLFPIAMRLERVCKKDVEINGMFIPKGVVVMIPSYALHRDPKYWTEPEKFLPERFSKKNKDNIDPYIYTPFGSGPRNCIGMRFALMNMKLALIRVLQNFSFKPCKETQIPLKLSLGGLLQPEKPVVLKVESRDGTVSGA
Chain of Paired box protein Pax-8 (Q06710 whole entry): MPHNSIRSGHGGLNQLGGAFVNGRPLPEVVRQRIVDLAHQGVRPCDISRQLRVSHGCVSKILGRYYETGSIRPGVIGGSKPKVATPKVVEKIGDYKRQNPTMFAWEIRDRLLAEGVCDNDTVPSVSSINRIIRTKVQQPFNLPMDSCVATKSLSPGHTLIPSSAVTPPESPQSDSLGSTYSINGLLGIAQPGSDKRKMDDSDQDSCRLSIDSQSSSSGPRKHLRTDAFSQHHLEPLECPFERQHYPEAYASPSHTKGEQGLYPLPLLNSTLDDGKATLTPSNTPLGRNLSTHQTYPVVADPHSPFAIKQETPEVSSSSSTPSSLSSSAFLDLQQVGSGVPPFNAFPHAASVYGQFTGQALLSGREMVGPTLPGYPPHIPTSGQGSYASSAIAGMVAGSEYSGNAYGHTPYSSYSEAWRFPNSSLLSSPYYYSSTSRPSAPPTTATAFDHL
Chain of Neurotensin receptor type 1 (P30989 whole entry): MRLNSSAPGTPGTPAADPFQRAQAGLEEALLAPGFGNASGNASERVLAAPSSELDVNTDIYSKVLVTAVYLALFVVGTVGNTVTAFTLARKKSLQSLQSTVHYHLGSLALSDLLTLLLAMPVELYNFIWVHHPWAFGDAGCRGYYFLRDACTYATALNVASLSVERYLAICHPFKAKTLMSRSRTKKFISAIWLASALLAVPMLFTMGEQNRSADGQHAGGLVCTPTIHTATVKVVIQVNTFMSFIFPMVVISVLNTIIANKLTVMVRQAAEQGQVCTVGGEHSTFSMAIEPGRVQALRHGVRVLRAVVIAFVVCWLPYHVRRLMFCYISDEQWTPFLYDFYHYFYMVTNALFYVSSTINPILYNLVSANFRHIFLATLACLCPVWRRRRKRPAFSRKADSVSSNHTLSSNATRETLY
Chain of Large T antigen (P03070 whole entry): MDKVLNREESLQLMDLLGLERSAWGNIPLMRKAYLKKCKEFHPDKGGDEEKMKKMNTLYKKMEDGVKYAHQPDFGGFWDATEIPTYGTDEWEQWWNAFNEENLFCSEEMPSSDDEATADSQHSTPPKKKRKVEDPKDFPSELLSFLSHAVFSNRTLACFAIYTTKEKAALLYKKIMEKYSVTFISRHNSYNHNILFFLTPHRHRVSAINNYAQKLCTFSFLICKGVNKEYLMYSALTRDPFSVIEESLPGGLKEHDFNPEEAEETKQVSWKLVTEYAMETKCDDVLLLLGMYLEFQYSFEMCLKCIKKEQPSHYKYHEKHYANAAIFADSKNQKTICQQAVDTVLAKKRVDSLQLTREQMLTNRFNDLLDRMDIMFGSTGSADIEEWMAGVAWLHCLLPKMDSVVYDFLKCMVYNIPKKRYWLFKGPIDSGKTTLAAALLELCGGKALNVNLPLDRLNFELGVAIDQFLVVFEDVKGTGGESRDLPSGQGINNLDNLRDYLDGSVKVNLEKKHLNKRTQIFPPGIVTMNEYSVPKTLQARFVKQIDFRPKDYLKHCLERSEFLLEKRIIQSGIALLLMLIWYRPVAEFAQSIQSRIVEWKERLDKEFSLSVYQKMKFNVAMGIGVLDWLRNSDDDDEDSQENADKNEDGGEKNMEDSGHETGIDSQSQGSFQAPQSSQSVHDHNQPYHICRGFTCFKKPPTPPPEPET

COCCN(CCOC)c1nc(C)nc2c1nc(-c1ccccc1)n2CC1CCN(C)CC1
AC50 (Cytochrome P450 3A4 [1]): 15.8 µM (inconclusive)

O=C1CC(=O)C(n2cncn2)C(c2ccc(Cl)cc2Cl)C1 (stereo not given)
IC50 (Leucine aminopeptidase): 17.9 µM (active)

Cc1cc(C)cc(N2C(=O)NC(=O)/C(=C/c3cccn3-c3ccc(Cl)cc3)C2=O)c1
EC50 [2]: 31.6 µM (active)
EC50 [3]: 26.1 µM (active)
EC50 [4]: 10.6 µM (active)
AC50 [5]: 1.04 µM (active)

CC(=O)c1cccc(NC(=O)CCC2CCCC2)c1
AC50 (Cytochrome P450 3A4 [6]): 28.2 µM (inconclusive)
EC50 [7]: > 50 µM (active)

CC(c1cccnc1)N(CCN(C)C)C(=O)Nc1ccc(Cl)c(Cl)c1 (stereo not given)
EC50 [7]: > 50 µM (active)
EC50 [8]: 1.5 µM (active)

CCCCNc1nc(C)nc2c1nc(-c1ccccc1)n2CCCN(C)C
AC50 (Cytochrome P450 3A4 [1]): 15.8 µM (inconclusive)

O=C(c1ccc(Cl)cc1)C(CN1CCCCC1)c1ccccc1 (stereo not given)
AC50 (INS1): 19.4 µM (active)
EC50 [4]: 14.7 µM (active)

COc1ccc(C2Oc3cc(OC)cc(OC)c3CC2O)cc1 (stereo not given)
AC50 (Cytochrome P450 3A4 [1]): 20 µM (inconclusive)

O=C(O)C1CC=CCC1C(=O)NCCc1ccccc1 (stereo not given)
IC50 (cells [9]): > 29.9 µM (inactive)
EC50 (cells [10]): > 29.9 µM (inactive)

COc1ccc(CNC(=O)C2CC(C)=C(C)CC2C(=O)O)cc1 (stereo not given)
IC50 (Leucine aminopeptidase): 43.7 µM (active)

Cc1ccc(-n2c(C)cc(C(=O)NS(=O)(=O)c3ccc(C)cc3)c2C)cc1
IC50 (Leucine aminopeptidase): 25.4 µM (active)

Cc1cccc(CN2C3=NCCCN3c3ccccc32)c1
EC50 [7]: > 50 µM (active)

COc1ccc(NS(=O)(=O)c2cccc(NC(=O)c3ccccn3)c2)cc1
EC50 [7]: > 50 µM (active)

C(=NOCCc1ccccc1)c1cccnc1
IC50 (cells [9]): > 29.8 µM (inactive)
EC50 (cells [10]): > 29.8 µM (inactive)

Cc1cc(Cl)nc(Cl)c1C(=O)NCCc1ccccc1
IC50 (cells [9]): > 29.9 µM (inactive)
EC50 (cells [10]): > 29.9 µM (inactive)

C[C@@H]1CN([C@H](C)CO)C(=O)Cc2cc(NC(=O)NC3CCCCC3)ccc2O[C@H]1CN(C)Cc1ccc(-c2ccccc2)cc1
AC50 [11]: 4.51 µM (active)

C[C@H](CO)N1C[C@H](C)[C@H](CN(C)Cc2ccc(C(=O)Nc3ccccc3N)cc2)Oc2c(cccc2N(C)C)C1=O
AC50 [11]: 3.67 µM (active)

COc1ccc(S(=O)(=O)Nc2ccc3c(c2)CC(=O)N([C@@H](C)CO)C[C@@H](C)[C@@H](CN(C)Cc2ccc(C(F)(F)F)cc2)O3)cc1
AC50 [11]: 5.93 µM (active)

C[C@H](CO)N1C[C@H](C)[C@H](CN(C)C(=O)Nc2ccc(C(F)(F)F)cc2)Oc2c(NC(=O)Nc3ccc(C(F)(F)F)cc3)cccc2C1=O
AC50 [11]: 6.56 µM (active)

C[C@@H]1CN([C@H](C)CO)C(=O)c2cc(NS(=O)(=O)c3ccccc3)ccc2O[C@@H](C)CCCCO[C@@H]1CN(C)CC1CCCCC1
AC50 (Paired box protein Pax-8): 19.6 µM (active)
AC50 [12]: 53.9 µM (active)
AC50 [13]: 68 µM (active)

C[C@@H]1CCCCO[C@@H](CN(C)S(=O)(=O)c2ccc(Cl)cc2)[C@H](C)CN([C@H](C)CO)C(=O)c2cc(NS(=O)(=O)c3ccc(F)cc3)ccc2O1
AC50 (Paired box protein Pax-8): 3.41 µM (active)
AC50 [14]: 57.7 µM (active)

O=C(Cc1cc(O)n[nH]1)N/N=C/c1c(Cl)cccc1Cl
AC50 [15]: 2.66 µM (active) and 7.7 µM (active)
EC50 (Protein RecA): 6.26 µM (inconclusive) and 1.51 µM (active)
IC50 (Leucine aminopeptidase): 49.9 µM (active)

C/C(=N/NC(=O)Cc1c(C)n[nH]c1O)c1ccc(O)cc1
IC50 (Large T antigen): 31.4 µM (active)
IC50 (Leucine aminopeptidase): 4.09 µM (active)
AC50 [16]: 1.49 µM (active)

O=C1CC(c2ccccc2O)Oc2ccc(O)cc21 (stereo not given)
AC50 (Cytochrome P450 3A4 [1]): 25.1 µM (inconclusive)
